Experimental data from publication doi:10.1101/2025.03.27.645769, “Structural Insights into Kainate Receptor Desensitization” (bioRxiv, 2025).

Target: T1, GluK2 (Rattus norvegicus, UniProt P42260)
T1 construct: gene Grik2; wild-type rat GluK2 expressed in HEK293T cells
Assay: whole-cell patch-clamp, potentiation of glutamate-evoked peak current
Assay type: cell-based

T1 sequence (P42260 32-908): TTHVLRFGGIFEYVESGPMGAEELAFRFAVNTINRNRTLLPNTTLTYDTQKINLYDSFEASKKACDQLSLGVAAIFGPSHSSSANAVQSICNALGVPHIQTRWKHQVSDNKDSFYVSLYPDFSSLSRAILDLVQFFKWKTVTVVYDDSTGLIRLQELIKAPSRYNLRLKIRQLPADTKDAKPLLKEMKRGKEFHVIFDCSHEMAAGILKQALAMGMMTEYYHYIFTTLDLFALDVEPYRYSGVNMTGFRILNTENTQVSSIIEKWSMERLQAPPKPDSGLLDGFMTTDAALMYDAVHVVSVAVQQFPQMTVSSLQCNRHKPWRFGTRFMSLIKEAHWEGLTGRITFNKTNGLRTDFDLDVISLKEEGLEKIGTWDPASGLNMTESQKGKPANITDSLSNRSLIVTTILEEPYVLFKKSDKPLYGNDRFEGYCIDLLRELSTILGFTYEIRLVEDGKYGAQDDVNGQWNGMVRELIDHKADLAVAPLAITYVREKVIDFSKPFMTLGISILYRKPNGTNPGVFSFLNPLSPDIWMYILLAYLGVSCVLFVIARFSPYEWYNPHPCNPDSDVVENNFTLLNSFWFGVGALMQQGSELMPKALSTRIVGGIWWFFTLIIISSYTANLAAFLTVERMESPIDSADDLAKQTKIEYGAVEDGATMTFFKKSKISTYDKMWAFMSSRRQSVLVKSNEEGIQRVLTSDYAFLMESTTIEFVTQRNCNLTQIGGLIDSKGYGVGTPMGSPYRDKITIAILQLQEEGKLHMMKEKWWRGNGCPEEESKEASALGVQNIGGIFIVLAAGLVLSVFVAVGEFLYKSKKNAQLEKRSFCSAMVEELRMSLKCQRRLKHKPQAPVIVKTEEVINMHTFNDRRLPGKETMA

## O=S1(=O)NCN(C2CC2)c2ccc(F)cc21 [BPAM344]
  whole-cell patch-clamp, potentiation of glutamate-evoked peak current: Potentiation of the peak current amplitudes (Ipeak) of GluK2 WT (left)
